Source: patent publication US20130212744A1, “METHOD OF REDUCING INSECT-VECTORED VIRAL INFECTIONS” (priority 2010, published 2013)

How the values were obtained:
Format in all cases: in vivo
Conditions in all cases: 150 g ai/hl
[1] = system: whitefly Bemisia tabaci nymphs; experiment: Foliar use field trial on tomato, efficacy on whitefly nymphs
Description: (§1) Two studies were carried out in Elhasanya, Egypt in 2009 on tomato plants of the variety Fayrouz with the main goal to measure efficacy on the whitefly Bemisia tabaci. The plot size was 4.8 m^2 and 6 replicates were used in the trial. Products were applied 3 times on young tomato plants at BBCH stages 14, 17 and 51 at spray intervals between 12 and 19 days. The spray volume was at the first application 350 l/ha and later 500 l/ha. The evaluation of this study was done counting the adult whiteflies (Bemisia tabaci) as well as the nymphs and the eggs in each plot. In addition to the direct whitefly effect, visual symptoms of the virus, mainly TYLCV (tomato yellow leaf curl virus) were evaluated also.
(§2) ASM=Acibenzolar-S-methyl. WG 50=Actigard® 50WG, a water-dispersible granule with the active ingredient ASM CYNT=Cyantraniliprole. WG 40=Cyazypyr®, a water dispersable granule with the active ingredient CYNT. Results on whitefly adults. Trial 1

[2] = system: whitefly Bemisia tabaci adults; experiment: Foliar use field trial on tomato, efficacy on whitefly adults
Description: as §1, §2

[3] = system: TYLCV (tomato yellow leaf curl virus); experiment: Foliar use field trial on tomato, infected leaf area by TYLC virus
Description: as §1, §2
Evaluation of percentage of infected leaf area by TYLC virus (average of 45 plants evaluated per treatment) Trial 1

For `Cc1cc(C)c(C2=C(OC(=O)CC(C)(C)C)C3(CCCC3)OC2=O)c(C)c1` [Spiromesifen], the “% Efficacy on Nymphs” value ([1]; 5DAA2, Trial 1) was 86%, the “% Efficacy on Nymphs” value ([1]; 5DAA2, Trial 2) was 86% and the “% Efficacy on Nymphs” value ([1]; 5DAA3, Trial 1) was 88%. The “% Efficacy on Nymphs” value ([1]; 5DAA3, Trial 2) was 88%, the “% Efficacy on Nymphs” value ([1]; 10DAA2, Trial 1) was 85% and the “% Efficacy on Nymphs” value ([1]; 10DAA2, Trial 2) was 85%. For the same compound, the “% Efficacy on Nymphs” value ([1]; 10DAA3, Trial 1) was 84%, the “% Efficacy on Nymphs” value ([1]; 10DAA3, Trial 2) was 84% and the “% Efficacy on Nymphs” value ([1]; 15DAA3, Trial 1) was 81%. For the same compound, the “% Efficacy on Nymphs” value ([1]; 15DAA3, Trial 2) was 81%, the “% Efficacy on Nymphs” value ([1]; 20DAA3, Trial 1) was 76% and the “% Efficacy on Nymphs” value ([1]; 20DAA3, Trial 2) was 76%. The “% Efficacy on Nymphs Avg % C” value ([1]; Avg, Trial 1) was 83%, the “% Efficacy on Adults” value ([2]; 5DAA1, Trial 1) was 61% and the “% Efficacy on Adults” value ([2]; 5DAA1, Trial 2) was 61%. For the same compound, the “% Efficacy on Adults” value ([2]; 5DAA2, Trial 1) was 71%, the “% Efficacy on Adults” value ([2]; 5DAA2, Trial 2) was 71% and the “% Efficacy on Adults” value ([2]; 5DAA3, Trial 1) was 81%. For the same compound, the “% Efficacy on Adults” value ([2]; 5DAA3, Trial 2) was 81%, the “% Efficacy on Adults” value ([2]; 10DAA1, Trial 1) was 43% and the “% Efficacy on Adults” value ([2]; 10DAA1, Trial 2) was 43%. The “% Efficacy on Adults” value ([2]; 10DAA2, Trial 1) was 69%, the “% Efficacy on Adults” value ([2]; 10DAA2, Trial 2) was 69% and the “% Efficacy on Adults” value ([2]; 10DAA3, Trial 1) was 76%. The “% Efficacy on Adults” value ([2]; 10DAA3, Trial 2) was 76%, the “% Efficacy on Adults” value ([2]; 15DAA3, Trial 1) was 67% and the “% Efficacy on Adults” value ([2]; 15DAA3, Trial 2) was 67%. For the same compound, the “% Efficacy on Adults” value ([2]; 20DAA3, Trial 1) was 54%, the “% Efficacy on Adults” value ([2]; 20DAA3, Trial 2) was 54% and the “% Efficacy on Adults Avg % C” value ([2]; Avg, Trial 1) was 65%. For the same compound, the “% Infected Surface area with virus / plant” value ([3]; 5DAA2, Trial 1) was 1.1%, the “% Infected Surface area with virus / plant” value ([3]; 5DAA2, Trial 2) was 1.1% and the “% Infected Surface area with virus / plant” value ([3]; 5DAA3, Trial 1) was 0.8%. For the same compound, the “% Infected Surface area with virus / plant” value ([3]; 5DAA3, Trial 2) was 0.8%, the “% Infected Surface area with virus / plant” value ([3]; 10DAA3, Trial 1) was 7.1% and the “% Infected Surface area with virus / plant” value ([3]; 10DAA3, Trial 2) was 7.1%. The “% Infected Surface area with virus / plant” value ([3]; 15DAA3, Trial 1) was 8.8%, the “% Infected Surface area with virus / plant” value ([3]; 15DAA3, Trial 2) was 8.8% and the “% Infected Surface area with virus / plant” value ([3]; 20DAA3, Trial 1) was 11.1%. The “% Infected Surface area with virus / plant” value ([3]; 20DAA3, Trial 2) was 11.1%, the “% Infected Surface area with virus / plant” value ([3]; 24DAA3, Trial 1) was 11.5% and the “% Infected Surface area with virus / plant” value ([3]; 24DAA3, Trial 2) was 11.5%.
